Holding throughout (assay type): cell-based
Assay [1] relates to human prostate cancer cells (PC3). The assay is described as follows: Cytotoxicity by SRB assay, PC3. Particulars: 0.01 μM to 100 μM for 72 h. The protocol: (§1) The human prostate cancer cells (PC3) and human osteosarcoma cells (MG-63) were obtained from Nawah Scientific Inc. (Mokatam, Cairo, Egypt) and cultured in DMEM (Dulbecco's modified eagle's medium), Gibco, USA, supplemented with fetal bovine serum (FBS) at a concentration of 10% and 100 U/mL of penicillin and streptomycin (PS). The Cells were incubated at 37° C. in a humidified environment that contained 5% CO2. Cells were seeded in 96-well plates as aliquots of 100 μL cell suspension and incubated in a complete media for 24 h. afterward, cells were treated with [3-(4-methoxyphenyl)-1,2,4-oxadiazol-5-yl]methanol at diverse concentrations ranging from 0.01 μM to 100 μM for 72 h. Then, cells were fixed at 4° C. for one hour with 150 μL of 10% trichloroacetic acid (TCA). After washing the cells five times with distilled water, 70 μL of sulforhodamine (SRB) solution (0.4% w/v) was added and incubated for 10 min at room temperature in a dark place. […] Then, 150 μL of Tris pH 10.5 (10 mM) was added, and the absorbance was measured at 540 nm using a BMG LABTECH®-FLUOstar Omega microplate reader (Ortenberg, Germany). Half maximal inhibitory concentrations (IC50) values were calculated for each experiment using GraphPad Prism 6 software. […] The inhibition was calculated using the following equation: Inhibition %=100−Average Viability
In general terms: The SRB assay estimates cell density from bound dye.

Assay [2] has as its system human osteosarcoma cells (MG-63). The assay is described as follows: Cytotoxicity by SRB assay, MG-63. The conditions noted are these: MG-63 cells, 0.01 μM to 100 μM for 72 h. The protocol: as §1
The test system of assay [3] is Bacillus cereus. The assay is described as follows: Agar plate disc-diffusion, Bacillus cereus. Particulars: gram positive; disc 10 μL of 10 mg/mL in DMSO, 37° C., 48 h. The protocol:
(§2) The antimicrobial properties of the synthesized compounds were studied by the method of agar plate disc-diffusion. Sterilized filter papers (6 mm in diameter) were wetted with 10 μL of a solution of each compound to be tested, containing 10 mg/mL in DMSO, and the discs were allowed to air dry. The discs were then placed onto the surface of agar plates (nutrient agar for bacteria and Sabouraud's dextrose agar for fungi) seeded with the test organism. Each plate contained 15 mL of the agar medium, previously seeded with 0.2 mL of the broth culture of each organism pregrown for 18 h. The plates were incubated at 37° C. for 48 h, and 72 h for fungi. The inhibition zones were measured in mm. Discs impregnated with DMSO were used as a control, and its inhibition zone was subtracted from the tested compound actual inhibition zone.

The subject of assay [4] is Staphylococcus aureus. As to the kind of experiment: Agar plate disc-diffusion, Staphylococcus aureus. The conditions noted are these: gram positive; disc 10 μL of 10 mg/mL in DMSO, 37° C., 48 h. The protocol:
as §2
Background: A growth-free zone around the sample is the usual read-out of agar diffusion tests.

Assay [5] concerns Pseudomonas aeruginosa. The assay is described as follows: Agar plate disc-diffusion, Pseudomonas aeruginosa. The conditions noted are these: gram-negative; disc 10 μL of 10 mg/mL in DMSO, 37° C., 48 h. The protocol:
as §2

The subject of assay [6] is Escherichia coli. As to the kind of experiment: Agar plate disc-diffusion, Escherichia coli. Particulars: gram-negative; disc 10 μL of 10 mg/mL in DMSO, 37° C., 48 h. The protocol: as §2
Assay [7] relates to Aspergillus flavus. As to the kind of experiment: Agar plate disc-diffusion, Aspergillus flavus. Particulars: fungus; disc 10 μL of 10 mg/mL in DMSO, 72 h. The protocol:
as §2

Assay [8] has as its system Chrysosporium keratinophilum. As to the kind of experiment: Agar plate disc-diffusion, Chrysosporium keratinophilum. The conditions noted are these: fungus; disc 10 μL of 10 mg/mL in DMSO, 72 h. The protocol: as §2

As for `COc1ccc(-c2noc(CO)n2)cc1` [[3-(4-methoxyphenyl)-1,2,4-oxadiazol-5-yl]methanol], the antiproliferative activity result in assay [1] and in assay [2] was “excellent antiproliferative activities” throughout. In addition, the antibacterial activity entry in assay [3], in assay [4], in assay [5] and in assay [6] was “high antimicrobial activities” each time. The antifungal activity result in assay [7] and in assay [8] was “high antimicrobial activities” each time.
